Data: US12478617B2, “Lipidated peptide inhibitors of interleukin-23 receptor” (JANSSEN BIOTECH, INC., priority 2021, dated 2025)
pIC50: −log10 of the molar value. Starred links: 1 amine or outer side, 2 acyl side, 3 side chain; linkers in the order of their positions; H or OH if unused. Positions of bridges follow the written chain, without caps; N, C: chain ends. Non-standard residues stand in square brackets, D forms with d. Residues, ends and D or L forms follow the SMILES beside them. Groups on a side chain read outwards from the residue. *: point of attachment. X7 = C[N+](C)(CCNC(=O)CC[C@H](NC(=O)CCCCCCCCCCCCCCCCC(=O)O)C(=O)O)CC(=O)*; Trp(7-Me) = Cc1cccc2c(C[C@H](N)C(=O)O)c[nH]c12; C18 diacid = O=C(O)CCCCCCCCCCCCCCCCC(=O)*; C16 diacid = O=C(O)CCCCCCCCCCCCCCC(=O)*; γGlu = O=C(O)[C@H](CCC(=O)[*:2])N[*:1]; 2Nal = N[C@@H](Cc1ccc2ccccc2c1)C(=O)O; AEF = NCCOc1ccc(C[C@H](N)C(=O)O)cc1; Palmitoyl = CCCCCCCCCCCCCCCC(=O)*; 3Pal = N[C@@H](Cc1cccnc1)C(=O)O; NMeK = CN[C@@H](CCCCN)C(=O)O; Pen = CC(C)(S)[C@H](N)C(=O)O; Thp = NC1(C(=O)O)CCOCC1; AEEA = NCCOCCOCC(=O)O; Sar = CNCC(=O)O

What follows are compounds tested against T1, IL-23R (Homo sapiens, UniProt Q5VWK5) (assay: IL23R Reporter Assay). Conditions: not given.
T1 construct: HEK293 cells containing IL-23R, IL-12RP31 and a firefly luciferase reporter gene driven by a STAT-inducible promoter (Promega); host or cells: HEK293
T1 sequence (Q5VWK5 24-629): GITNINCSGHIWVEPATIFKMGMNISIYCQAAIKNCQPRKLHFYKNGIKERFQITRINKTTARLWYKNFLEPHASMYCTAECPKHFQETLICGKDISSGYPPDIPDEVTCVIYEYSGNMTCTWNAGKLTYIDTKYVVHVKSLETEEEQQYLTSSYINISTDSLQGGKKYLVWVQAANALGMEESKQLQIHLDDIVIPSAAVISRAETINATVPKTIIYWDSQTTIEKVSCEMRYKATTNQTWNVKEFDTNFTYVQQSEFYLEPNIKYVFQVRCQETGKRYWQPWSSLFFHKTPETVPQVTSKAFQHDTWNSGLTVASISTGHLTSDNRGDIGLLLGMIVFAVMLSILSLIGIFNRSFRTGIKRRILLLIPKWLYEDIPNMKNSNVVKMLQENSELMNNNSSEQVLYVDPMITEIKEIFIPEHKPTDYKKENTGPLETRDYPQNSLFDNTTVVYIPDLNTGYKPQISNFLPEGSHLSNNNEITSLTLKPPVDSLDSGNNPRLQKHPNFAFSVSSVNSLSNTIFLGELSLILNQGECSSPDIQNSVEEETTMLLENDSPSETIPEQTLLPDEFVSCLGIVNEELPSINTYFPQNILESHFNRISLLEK
Format: cell-based
Method in brief: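 Luminescence from BioGlo, read after cells were moved to 20 °C, followed a 5 h incubation at 37 °C, 5% CO2 with DMSO-diluted test compounds.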
Work on `CC(=O)NCCCC[C@@H]1NC(=O)[C@H](Cc2c[nH]c3c(C)cccc23)NC(=O)[C@H]([C@@H](C)O)NC(=O)[C@H](CC(N)=O)NC(=O)[C@@H](NC(=O)[C@@H](CCCNC(=N)N)NC(C)=O)C(C)(C)SSC(C)(C)[C@@H](C(=O)N[C@@H](Cc2ccc(OCCNC(=O)COCCOCCNC(=O)COCCOCCNC(=O)CC[C@H](NC(=O)CCCCCCCCCCCCCCC(=O)O)C(=O)O)cc2)C(=O)N[C@@H](Cc2ccc3ccccc3c2)C(=O)NC2(C(=O)N[C@@H](CCCCNC(C)=O)C(=O)N[C@@H](CC(N)=O)C(=O)N[C@@H](Cc3cccnc3)C(=O)N(C)CC(N)=O)CCOCC2)NC1=O` [Example 26, MeCO-r-Pen*-N-T-7MeW-K(Ac)-Pen*-AEF(PEG2PEG2gEC16OH)-2Nal-THP-K(Ac)-N-3Pya-Sar-CONH2] (Ac-[dR][Pen]NT[Trp(7-Me)]K(Ac)[Pen][AEF]([AEEA-AEEA-γGlu-C16 diacid])[2Nal][Thp]K(Ac)N[3Pal][Sar]-NH2; disulfide 2-7) yielded a pIC50 of 10.60. For `CC(=O)NCCCC[C@@H]1NC(=O)[C@H](Cc2c[nH]c3c(C)cccc23)NC(=O)[C@H]([C@@H](C)O)NC(=O)[C@H](CCCCNC(=O)COCCOCCNC(=O)COCCOCCNC(=O)[C@H]2CCCN2C(=O)CC[C@H](NC(=O)CCCCCCCCCCCCCCCCC(=O)O)C(=O)O)NC(=O)[C@@H](NC(=O)[C@@H](CCCNC(=N)N)NC(C)=O)C(C)(C)SSC(C)(C)[C@@H](C(=O)N[C@@H](Cc2ccc(OCCN)cc2)C(=O)N[C@@H](Cc2ccc3ccccc3c2)C(=O)NC2(C(=O)N[C@@H](CCCCNC(C)=O)C(=O)N[C@@H](CC(N)=O)C(=O)N[C@@H](Cc3cccnc3)C(=O)N(C)CC(N)=O)CCOCC2)NC1=O` [Example 96, MeCO-r-Pen*-K(PEG2PEG2pgEC18OH)-T-7MeW-K(Ac)-Pen*-AEF-2Nal-THP-K(Ac)-N-3Pya-Sar-CONH2] (Ac-[dR][Pen]K([AEEA-AEEA-dP-γGlu-C18 diacid])T[Trp(7-Me)]K(Ac)[Pen][AEF][2Nal][Thp]K(Ac)N[3Pal][Sar]-NH2; disulfide 2-7), the pIC50 was 9.89. For `CC(=O)NCCCC[C@@H]1NC(=O)[C@H](Cc2c[nH]c3c(C)cccc23)NC(=O)[C@H]([C@@H](C)O)NC(=O)[C@H](CCCCNC(=O)COCCOCCNC(=O)COCCOCCNC(=O)CC[C@H](NC(=O)CCCCCCCCCCCCCCCCC(=O)O)C(=O)O)NC(=O)[C@@H](NC(C)=O)C(C)(C)SSC(C)(C)[C@@H](C(=O)N[C@@H](Cc2ccc(OCCN)cc2)C(=O)N[C@@H](Cc2ccc3ccccc3c2)C(=O)NC2(C(=O)N[C@@H](CCCCNC(C)=O)C(=O)N[C@@H](CC(N)=O)C(=O)N[C@@H](Cc3cccnc3)C(=O)N(C)CC(N)=O)CCOCC2)NC1=O` [Example 122, MeCO-Pen*-K(PEG2PEG2gEC18OH)-T-7MeW-K(Ac)-Pen*-AEF-2Nal-THP-K(Ac)-N-3Pya-Sar-CONH2] (Ac-[Pen]K([AEEA-AEEA-γGlu-C18 diacid])T[Trp(7-Me)]K(Ac)[Pen][AEF][2Nal][Thp]K(Ac)N[3Pal][Sar]-NH2; disulfide 1-6), the pIC50 was 10.08. Compound `CC(=O)NCCCC[C@@H]1NC(=O)[C@H](Cc2c[nH]c3c(C)cccc23)NC(=O)[C@H]([C@@H](C)O)NC(=O)[C@H](CC(N)=O)NC(=O)[C@@H](NC(=O)[C@@H](CCCNC(=N)N)NC(C)=O)C(C)(C)SSC(C)(C)[C@@H](C(=O)N[C@@H](Cc2ccc(OCCN)cc2)C(=O)N[C@@H](Cc2ccc3ccccc3c2)C(=O)NC2(C(=O)N[C@@H](CCC(=O)O)C(=O)N[C@@H](CC(N)=O)C(=O)N[C@@H](Cc3cccnc3)C(=O)N(C)[C@@H](CCCCNC(=O)COCCOCCNC(=O)COCCOCCNC(=O)CC[C@H](NC(=O)CCCCCCCCCCCCCCC(=O)O)C(=O)O)C(N)=O)CCOCC2)NC1=O` [Example 22, MeCO-r-Pen*-N-T-7MeW-K(Ac)-Pen*-AEF-2Nal-THP-E-N-3Pya-NMeK(PEG2PEG2gEC16OH)-CONH2] (Ac-[dR][Pen]NT[Trp(7-Me)]K(Ac)[Pen][AEF][2Nal][Thp]EN[3Pal][NMeK]([AEEA-AEEA-γGlu-C16 diacid])-NH2; disulfide 2-7) has a pIC50 of 10.59. `CCCCCCCCCCCCCCCC(=O)N[C@@H](CCC(=O)NCCCC[C@@H]1NC(=O)[C@@H](NC(=O)[C@@H](CCCNC(=N)N)NC(C)=O)C(C)(C)SSC(C)(C)[C@@H](C(=O)N[C@@H](Cc2ccc(OCCN)cc2)C(=O)N[C@@H](Cc2ccc3ccccc3c2)C(=O)NC2(C(=O)N[C@@H](CCCCNC(C)=O)C(=O)N[C@@H](CC(N)=O)C(=O)N[C@@H](Cc3cccnc3)C(=O)N(C)CC(N)=O)CCOCC2)NC(=O)[C@H](CCCCNC(C)=O)NC(=O)[C@H](Cc2c[nH]c3c(C)cccc23)NC(=O)[C@H]([C@@H](C)O)NC1=O)C(=O)O` [Example 69, MeCO-r-Pen*-K(gEC16)-T-7MeW-K(Ac)-Pen*-AEF-2Nal-THP-K(Ac)-N-3Pya-Sar-CONH2] (Ac-[dR][Pen]K([γGlu-Palmitoyl])T[Trp(7-Me)]K(Ac)[Pen][AEF][2Nal][Thp]K(Ac)N[3Pal][Sar]-NH2; disulfide 2-7) gave a pIC50 of 9.89. `CC(=O)NCCCC[C@@H]1NC(=O)[C@H](Cc2c[nH]c3c(C)cccc23)NC(=O)[C@H]([C@@H](C)O)NC(=O)[C@H](CC(N)=O)NC(=O)[C@@H](NC(=O)[C@@H](CCCNC(=N)N)NC(C)=O)C(C)(C)SSC(C)(C)[C@@H](C(=O)N[C@@H](Cc2ccc(OCCN)cc2)C(=O)N[C@@H](Cc2ccc3ccccc3c2)C(=O)NC2(C(=O)N[C@@H](CCCCNC(C)=O)C(=O)N[C@@H](CC(N)=O)C(=O)N[C@@H](Cc3cccnc3)C(=O)N(C)[C@@H](CCCCNC(=O)COCCOCCNC(=O)COCCOCCNC(=O)CC[C@H](NC(=O)CCCCCCCCCCCCCCCCC(=O)O)C(=O)O)C(N)=O)CCOCC2)NC1=O` [Example 54, MeCO-r-Pen*-N-T-7MeW-K(Ac)-Pen*-AEF-2Nal-THP-K(Ac)-N-3Pya-NMeK(PEG2PEG2gEC18OH)-CONH2] (Ac-[dR][Pen]NT[Trp(7-Me)]K(Ac)[Pen][AEF][2Nal][Thp]K(Ac)N[3Pal][NMeK]([AEEA-AEEA-γGlu-C18 diacid])-NH2; disulfide 2-7) showed a pIC50 of 9.89. Work on `CC(=O)NCCCC[C@@H]1NC(=O)[C@H](Cc2c[nH]c3c(C)cccc23)NC(=O)[C@H]([C@@H](C)O)NC(=O)[C@H](CC(N)=O)NC(=O)[C@@H](NC(C)=O)C(C)(C)SSC(C)(C)[C@@H](C(=O)N[C@@H](Cc2ccc(OCCN)cc2)C(=O)N[C@@H](Cc2ccc3ccccc3c2)C(=O)NC2(C(=O)N[C@@H](CCCCNC(=O)COCCOCCNC(=O)COCCOCCNC(=O)[C@H]3CCCN3C(=O)[C@H]3CCCN3C(=O)[C@H]3CCCN3C(=O)CC[C@H](NC(=O)CCCCCCCCCCCCCCCCC(=O)O)C(=O)O)C(=O)N[C@@H](CC(N)=O)C(=O)N[C@@H](Cc3cccnc3)C(=O)N(C)CC(N)=O)CCOCC2)NC1=O` [Example 108, MeCO-Pen*-N-T-7MeW-K(Ac)-Pen*-AEF-2Nal-THP-K(PEG2PEG2pppgEC18OH)-N-3Pya-Sar-CONH2] yielded a pIC50 of 9.82. Compound `CC(=O)NCCCC[C@@H]1NC(=O)[C@H](Cc2c[nH]c3c(C)cccc23)NC(=O)[C@H]([C@@H](C)O)NC(=O)[C@H](CCCCNC(=O)COCCOCCNC(=O)COCCOCCNC(=O)CC[C@H](NC(=O)CCCCCCCCCCCCCCCCC(=O)O)C(=O)O)NC(=O)[C@@H](NC(=O)[C@@H](CCCNC(=N)N)NC(C)=O)C(C)(C)SSC(C)(C)[C@@H](C(=O)N[C@@H](Cc2ccc(OCCN)cc2)C(=O)N[C@@H](Cc2ccc3ccccc3c2)C(=O)NC2(C(=O)N[C@@H](CCC(=O)O)C(=O)N[C@@H](CC(N)=O)C(=O)N[C@@H](Cc3cccnc3)C(=O)N(C)CC(N)=O)CCOCC2)NC1=O` [Example 20, MeCO-r-Pen*-K(PEG2PEG2gEC18OH)-T-7MeW-K(Ac)-Pen*-AEF-2Nal-THP-E-N-3Pya-Sar-CONH2] (Ac-[dR][Pen]K([AEEA-AEEA-γGlu-C18 diacid])T[Trp(7-Me)]K(Ac)[Pen][AEF][2Nal][Thp]EN[3Pal][Sar]-NH2; disulfide 2-7) has a pIC50 of 10.17. `CC(=O)NCCCC[C@@H]1NC(=O)[C@H](Cc2c[nH]c3c(C)cccc23)NC(=O)[C@H]([C@@H](C)O)NC(=O)[C@H](CC(N)=O)NC(=O)[C@@H](NC(C)=O)C(C)(C)SSC(C)(C)[C@@H](C(=O)N[C@@H](Cc2ccc(OCCN)cc2)C(=O)N[C@@H](Cc2ccc3ccccc3c2)C(=O)NC2(C(=O)N[C@@H](CCCCNC(=O)COCCOCCNC(=O)COCCOCCNC(=O)C[N+](C)(C)CCNC(=O)CC[C@H](NC(=O)CCCCCCCCCCCCCCCCC(=O)O)C(=O)O)C(=O)N[C@@H](CC(N)=O)C(=O)N[C@@H](Cc3cccnc3)C(=O)N(C)CC(N)=O)CCOCC2)NC1=O` [Example 118, MeCO-Pen*-N-T-7MeW-K(Ac)-Pen*-AEF-2Nal-THP-K(PEG2PEG2SP6gEC18OH)-N-3Pya-Sar-CONH2] (Ac-[Pen]NT[Trp(7-Me)]K(Ac)[Pen][AEF][2Nal][Thp]K([AEEA-AEEA-X7])N[3Pal][Sar]-NH2; disulfide 1-6) gave a pIC50 of 10.11.

Same assay, conditions: IL23R reporter assay, HEK293 cells with IL-23R and STAT-inducible luciferase reporter, 10 ng/mL IL-23, 5 h; Table 5b 'IL-23 Binding Data'
With “MeCO-r-Pen(3)-N15-T-7MeW-K(Ac)-Pen(3)-AEF-2Nal-THP-E-N15-3Pya-Sar-K(PEG2PEG2gEC18OH)-CONH2 [Compound 354]” the pIC50 was 5.89.
